Assay results from patent US20260297092A1, “PYRAZOLOPYRIMIDINE DERIVATIVES AS INHIBITORS OF NLRP3” (Takeda Pharmaceutical Company Limited, priority 2023, published 2026).

How the values were obtained:
[1] = test system: NLRP3 inflammasome (IL-1β production in THP-1 cells); assay: IL-1β TR-FRET Assay (percentage of inhibition at 300 nM, 6 μM or 10 μM); type: cell-based, human; settings: LPS priming, ATP activation; for inhibition at 0.3 µM / inhibition at 6 µM: Homo sapiens; for inhibition at 0.3 µM: THP-1, 300 nM, read-out: IL-1β inhibitory rate at 300 nM (%); for inhibition at 6 µM: THP-1, 6 μM, read-out: IL-1β inhibitory rate at 6 μM (%)
In short: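 THP-1 cells were differentiated with 25 ng/mL IFN-γ for 24 h, primed with 50 ng/mL LPS in serum-free medium for 24 h, then given compound for 30 min before 20 mM ATP for 2 h. Supernatant IL-1β was measured by HTRF after 16-24 h at room temperature. Inhibition was normalized between DMSO (high) and 3 μM MCC-950 (low).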

[2] = test system: TNF-α (NF-κB pathway, THP-1 cells); assay: TNF-α Assay (IC50); type: cell-based, human; settings: Homo sapiens, 600 ng/mL LPS, 3 hours
In short: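 THP-1 cells differentiated to macrophages with 25 ng/mL IFN for 24 h, plated 40,000/well in serum-free medium, preincubated with compounds 30 min at 37 °C, then stimulated with 600 ng/mL LPS for 3 h. Supernatant TNF-α measured by ELISA; IC50 from four-parameter logistic fit, 100% inhibition defined by TPCA-1.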

CCOc1nc2nn(-c3c(F)cc(OC(F)F)cc3Br)cc2c(=O)[nH]1 [Example 119, 2-[2-bromo-4-(difluoromethoxy)-6-fluorophenyl]-6-ethoxy-2,5-dihydro-4H-pyrazolo[3,4-d]pyrimidin-4-one]
inhibition at 0.3 µM [1]: 101% | IC50 [2]: > 30 µM

CCOCc1nc2nn(-c3c(C)cc(C)cc3O)cc2c(=O)[nH]1 [Example 46, 6-(ethoxymethyl)-2-(2-hydroxy-4,6-dimethylphenyl)-2,5-dihydro-4H-pyrazolo[3,4-d]pyrimidin-4-one]
inhibition at 0.3 µM [1]: 95% | IC50 [2]: > 30 µM

Cc1cc(C2CC2)cc(C(F)F)c1-n1cc2c(=O)[nH]c(COC(F)F)nc2n1 [Example 283, 2-[4-cyclopropyl-2-(difluoromethyl)-6-methylphenyl]-6-[(difluoromethoxy)methyl]-2,5-dihydro-4H-pyrazolo[3,4-d]pyrimidin-4-one]
inhibition at 6 µM [1]: 99% | IC50 [2]: > 30 µM

CO[C@H]1COCC[C@@H]1c1nc2nn(-c3c(C)cc(C4CC4)cc3C)cc2c(=O)[nH]1 (racemic) [Example 311, racemic mixture of 1,5-anhydro-3-[2-(4-cyclopropyl-2,6-dimethylphenyl)-4-oxo-4,5-dihydro-2H-pyrazolo[3,4-d]pyrimidin-6-yl]-2,3-dideoxy-4-O-methyl-L-threo-pentitol and 1,5-anhydro-3-[2-(4-cyclopropyl-2,6-dimethylphenyl)-4-oxo-4,5-dihydro-2H-pyrazolo[3,4-d]pyrimidin-6-yl]-2,3-dideoxy-4-O-methyl-D-threo-pentitol]
inhibition at 6 µM [1]: 102% | IC50 [2]: > 30 µM

CCOc1nc2nn(-c3c(F)cc(OC(F)(F)F)cc3Br)cc2c(=O)[nH]1 [Example 104, 2-[2-bromo-6-fluoro-4-(trifluoromethoxy)phenyl]-6-ethoxy-2,5-dihydro-4H-pyrazolo[3,4-d]pyrimidin-4-one]
inhibition at 0.3 µM [1]: 99% | IC50 [2]: > 30 µM

CCOc1nc2nn(-c3ccc(C)cc3F)cc2c(=O)[nH]1 [Example 113, 6-ethoxy-2-(2-fluoro-4-methylphenyl)-2,5-dihydro-4H-pyrazolo[3,4-d]pyrimidin-4-one]
inhibition at 0.3 µM [1]: 67% | IC50 [2]: > 30 µM

Cc1cc(C)c(-n2cc3c(=O)[nH]c(C4(C)CC4)nc3n2)c(O)c1 [Example 25, 2-(2-hydroxy-4,6-dimethylphenyl)-6-(1-methylcyclopropyl)-2,5-dihydro-4H-pyrazolo[3,4-d]pyrimidin-4-one]
inhibition at 0.3 µM [1]: 100% | IC50 [2]: > 30 µM

Cc1cc(C2CC2)cc(C)c1-n1cc2c(=O)[nH]c(OCCOC(F)F)nc2n1 [Example 288, 2-(4-cyclopropyl-2,6-dimethylphenyl)-6-[2-(difluoromethoxy)ethoxy]-2,5-dihydro-4H-pyrazolo[3,4-d]pyrimidin-4-one]
inhibition at 6 µM [1]: 99% | IC50 [2]: > 30 µM

Cc1cc(C2CC2)cc(C)c1-n1cc2c(=O)[nH]c([C@H]3C[C@@H](F)C3)nc2n1 [Example 249, 2-(4-cyclopropyl-2,6-dimethylphenyl)-6-[(1s,3s)-3-fluorocyclobutyl]-2,5-dihydro-4H-pyrazolo[3,4-d]pyrimidin-4-one]
inhibition at 6 µM [1]: 98% | IC50 [2]: > 30 µM

CCOc1nc2nn(-c3c(C)cc(C4CC4)cc3C)cc2c(=O)[nH]1 [Example 132, 2-(4-cyclopropyl-2,6-dimethylphenyl)-6-ethoxy-2,5-dihydro-4H-pyrazolo[3,4-d]pyrimidin-4-one]
inhibition at 0.3 µM [1]: 99% | IC50 [2]: > 30 µM

COCc1nc2nn(-c3c(C)cc(C4CC4)cc3C(F)F)cc2c(=O)[nH]1 [Example 321, 2-[4-cyclopropyl-2-(difluoromethyl)-6-methylphenyl]-6-(methoxymethyl)-2,5-dihydro-4H-pyrazolo[3,4-d]pyrimidin-4-one]
inhibition at 6 µM [1]: 103% | IC50 [2]: > 30 µM

COCc1nc2nn(-c3c(C)cc(C4CC4)cc3C)cc2c(=O)[nH]1 [Example 166, 2-(4-cyclopropyl-2,6-dimethylphenyl)-6-(methoxymethyl)-2,5-dihydro-4H-pyrazolo[3,4-d]pyrimidin-4-one]
inhibition at 0.3 µM [1]: 103% | IC50 [2]: > 30 µM

COc1nc2nn(-c3c(C)cc(C4CC4)cc3CC(F)(F)F)cc2c(=O)[nH]1 [Example 230, 2-[4-cyclopropyl-2-methyl-6-(2,2,2-trifluoroethyl)phenyl]-6-methoxy-2,5-dihydro-4H-pyrazolo[3,4-d]pyrimidin-4-one]
inhibition at 6 µM [1]: 93% | IC50 [2]: > 30 µM

COCCc1nc2nn(-c3c(C)cc(C)cc3O)cc2c(=O)[nH]1 [Example 38, 2-(2-hydroxy-4,6-dimethylphenyl)-6-(2-methoxyethyl)-2,5-dihydro-4H-pyrazolo[3,4-d]pyrimidin-4-one]
inhibition at 0.3 µM [1]: 100% | IC50 [2]: > 30 µM

Cc1cc(C2CC2)cc(C)c1-n1cc2c(=O)[nH]c(COC(F)F)nc2n1 [Example 224, 2-(4-cyclopropyl-2,6-dimethylphenyl)-6-[(difluoromethoxy)methyl]-2,5-dihydro-4H-pyrazolo[3,4-d]pyrimidin-4-one]
inhibition at 0.3 µM [1]: 104% | IC50 [2]: > 30 µM

CCOc1nc2nn(-c3c(F)cc(C)c(F)c3C)cc2c(=O)[nH]1 [Example 92, 2-(3,6-difluoro-2,4-dimethylphenyl)-6-ethoxy-2,5-dihydro-4H-pyrazolo[3,4-d]pyrimidin-4-one]
inhibition at 0.3 µM [1]: 82% | IC50 [2]: > 30 µM

Cc1cc(C)c(-n2cc3c(=O)[nH]c(C)nc3n2)c(O)c1 [Example 74, 2-(2-hydroxy-4,6-dimethylphenyl)-6-methyl-2,5-dihydro-4H-pyrazolo[3,4-d]pyrimidin-4-one]
inhibition at 0.3 µM [1]: 99% | IC50 [2]: > 30 µM

Cc1cc(C2CC2)cc(C)c1-n1cc2c(=O)[nH]c(-c3cnn(C)n3)nc2n1 [Example 258, 2-(4-cyclopropyl-2,6-dimethylphenyl)-6-(2-methyl-2H-1,2,3-triazol-4-yl)-2,5-dihydro-4H-pyrazolo[3,4-d]pyrimidin-4-one]
inhibition at 6 µM [1]: 100% | IC50 [2]: > 30 µM

Cc1cc(C2CC2)cc(C)c1-n1cc2c(=O)[nH]c(C3CCOCC3)nc2n1 [Example 198, 2-(4-cyclopropyl-2,6-dimethylphenyl)-6-(oxan-4-yl)-2,5-dihydro-4H-pyrazolo[3,4-d]pyrimidin-4-one]
inhibition at 0.3 µM [1]: 95% | IC50 [2]: > 30 µM

COc1nc2nn(-c3c(F)cc(C4CC4)cc3C(F)F)cc2c(=O)[nH]1 [Example 193, 2-[4-cyclopropyl-2-(difluoromethyl)-6-fluorophenyl]-6-methoxy-2,5-dihydro-4H-pyrazolo[3,4-d]pyrimidin-4-one]
inhibition at 0.3 µM [1]: 101% | IC50 [2]: > 30 µM

CCOc1nc2nn(-c3c(F)cc(C(F)(F)F)cc3Br)cc2c(=O)[nH]1 [Example 54, 2-[2-bromo-6-fluoro-4-(trifluoromethyl)phenyl]-6-ethoxy-2,5-dihydro-4H-pyrazolo[3,4-d]pyrimidin-4-one]
inhibition at 0.3 µM [1]: 100% | IC50 [2]: > 30 µM

CO[C@@H]1CCCC[C@@H]1c1nc2nn(-c3c(C)cc(C)cc3O)cc2c(=O)[nH]1 (racemic) [Example 12, racemic mixture of 2-(2-hydroxy-4,6-dimethylphenyl)-6-[(1R,2R)-2-methoxycyclohexyl]-2,5-dihydro-4H-pyrazolo[3,4-d]pyrimidin-4-one and 2-(2-hydroxy-4,6-dimethylphenyl)-6-[(1S,2S)-2-methoxycyclohexyl]-2,5-dihydro-4H-pyrazolo[3,4-d]pyrimidin-4-one]
inhibition at 0.3 µM [1]: 99% | IC50 [2]: 3.4 µM

CCn1ncc(-c2nc3nn(-c4c(C)cc(C5CC5)cc4C)cc3c(=O)[nH]2)n1 [Example 257, 2-(4-cyclopropyl-2,6-dimethylphenyl)-6-(2-ethyl-2H-1,2,3-triazol-4-yl)-2,5-dihydro-4H-pyrazolo[3,4-d]pyrimidin-4-one]
inhibition at 6 µM [1]: 99% | IC50 [2]: > 30 µM

COC[C@@H](C)Oc1nc2nn(-c3c(F)cc(C4CC4)cc3C(F)F)cc2c(=O)[nH]1 [Example 207, 2-[4-cyclopropyl-2-(difluoromethyl)-6-fluoro-phenyl]-6-{[(2R)-1-methoxypropan-2-yl]oxy}-2,5-dihydro-4H-pyrazolo[3,4-d]pyrimidin-4-one]
inhibition at 0.3 µM [1]: 98% | IC50 [2]: > 30 µM

Cc1cc(C2CC2)cc(C)c1-n1cc2c(=O)[nH]c(C3CCCO3)nc2n1 (single isomer, unassigned) [Example 227, 2-(4-cyclopropyl-2,6-dimethylphenyl)-6-[(2R)-oxolan-2-yl]-2,5-dihydro-4H-pyrazolo[3,4-d]pyrimidin-4-one or 2-(4-cyclopropyl-2,6-dimethylphenyl)-6-[(2S)-oxolan-2-yl]-2,5-dihydro-4H-pyrazolo[3,4-d]pyrimidin-4-one (HPLC Method A: tR1)]
IL-1β inhibitory rate at 300 nM (%) ([1]; 300 nM, 0.3 µM): 100% | IC50 [2]: > 30 µM

COCCOc1nc2nn(-c3c(C)cc(C)cc3O)cc2c(=O)[nH]1 [Example 22, 2-(2-hydroxy-4,6-dimethylphenyl)-6-(2-methoxyethoxy)-2,5-dihydro-4H-pyrazolo [3,4-d]pyrimidin-4-one]
inhibition at 0.3 µM [1]: 101% | IC50 [2]: > 30 µM

CO[C@H]1CCCC[C@@H]1c1nc2nn(-c3c(C)cc(C)cc3O)cc2c(=O)[nH]1 (racemic) [Example 36, racemic mixture of 2-(2-hydroxy-4,6-dimethylphenyl)-6-[(1R,2S)-2-methoxycyclohexyl]-2,5-dihydro-4H-pyrazolo[3,4-d]pyrimidin-4-one and 2-(2-hydroxy-4,6-dimethylphenyl)-6-[(1S,2R)-2-methoxycyclohexyl]-2,5-dihydro-4H-pyrazolo [3,4-d]pyrimidin-4-one]
inhibition at 0.3 µM [1]: 97% | IC50 [2]: > 30 µM
